According to EPA's ToxValDB 9.5:

Tested on: Rattus norvegicus
Conditions: oral
[1] = short-term, duration: 28 days, gavage, M, Sprague-Dawley, Clinical Observation: Locomotor activity decrease, Respiratory rate decrease, Incomplete eyelid opening + Blood Chemistry: TG decrease + …
[2] = chronic, duration: 17 weeks, gavage, F, Ash/CSE, Body Weight Changes: decrease
[3] = chronic, duration: 17 weeks, gavage, M, Ash/CSE, Body Weight Changes: decrease
[4] = subchronic, gavage, M, Sprague-Dawley, Clinical Observation: Salivation + Body Weight Changes: Body weight gain decrease + Food Consumption: decrease + Water Consumption: increase…
[5] = subchronic, gavage, M, Sprague-Dawley, Clinical Observation: Salivation (transient) + Functional Observational Battery: Salivation (transient)Defecation increase(transient) + …

O=C(O)C1C(C(=O)O)C2(Cl)C(Cl)=C(Cl)C1(Cl)C2(Cl)Cl (stereo not drawn) [Chlorendic acid]
NOEL (subchronic, duration: 13 weeks, diet, M/F, Fischer 344, Body Weight Changes: decrease + Histopathology: Liver-Cytomegaly Liver/bile duct -Hyperplasia Liver-Mitotic alteration): < 59.5 mg/kg-day

[Cu+2].[O-]n1ccccc1=S.[O-]n1ccccc1=S [Copper Omadine]
NOEL (short-term, duration: 28 days, gavage, M/F, Deaths + Clinical Observation: Ataxic gait Dragging of hindlimbs Emaciation + Body Weight Changes: decrease + Food Consumption: decrease + …): 2.5 mg/kg-day

CC=CC(=O)N(CC)c1ccccc1C [Crotamiton]
NOEL (short-term, duration: 28 days, gavage, F, Sprague-Dawley, Clinical Observation: Salivation + Body Weight Changes: Weight gain decrease, increase + Food Consumption: increase + Urinalysis: Occult …): 60 mg/kg-day
NOEL (short-term, duration: 28 days, gavage, M, Sprague-Dawley, Clinical Observation: Salivation + Body Weight Changes: Weight gain decrease, increase + Food Consumption: increase + Urinalysis: Occult …): 12 mg/kg-day

CC(C)c1ccc(N)cc1 [Cumidine]
NOEL (subchronic, gavage, M, Sprague-Dawley, Clinical Observation: Anemia in eyes + Hematology: Met-Hgb increase, Hct decrease, Hgb decrease, RBC decrease, MCV increase, MCH increase, …): 6 mg/kg-day

O=C1CCCCC1C1=CCCCC1 (stereo not drawn) [Cyclohexanone, 2-(1-cyclohexen-1-yl)-]
NOEL (subchronic, gavage, M, Sprague-Dawley, Clinical Observation: Salivation + Body Weight Changes: decrease + Blood Chemistry: gamma-GTP increase, TP increase, Alb increase, T-Cho …): 40 mg/kg-day

COC(=O)CC(=O)OC [Dimethyl malonate]
NOAEL (subchronic, gavage, M, Wistar, Histopathology: Liver: Hypertrophy, hepatocyte): 300 mg/kg-day

CN(C)CCCCl.Cl [Dimethylaminopropyl chloride hydrochloride]
NOEL (subchronic, drinking water, M/F, Fischer 344, Deaths + Body Weight Changes: decrease + Blood Chemistry: TP decrease Alb decrease Bile acid increase + Histopathology: Nose-Goblet cell, …): < 6.25 mg/kg-day

CC(CO)OC(C)CO.CC(O)COCC(C)O (stereo not drawn) [Dipropylene glycol]
NOAEL [1]: 1000 mg/kg-day
NOEL [1]: 200 mg/kg-day

CC(C)C[C@H]1C(=O)N2CCC[C@H]2[C@]2(O)O[C@](NC(=O)[C@@H]3C=C4c5cccc6[nH]cc(c56)C[C@H]4N(C)C3)(C(C)C)C(=O)N12 [Ergocryptine]
NOEL (subchronic, diet, F, Hsd/Ola/SD, Clinical Observation: Hyperkinesia, dirty hair Hunchback position Aggression + Body Weight Changes: decrease + Food Consumption: decrease + …): 0.36 mg/kg-day
NOEL (subchronic, diet, M/F, Hsd/Ola/SD, Clinical Observation: Hyperkinesia, dirty hair Hunchback position Aggression + Body Weight Changes: decrease + Food Consumption: decrease + …): 4 mg/kg-day

CCOCCOCCOC [Ethane, 1-ethoxy-2-(2-methoxyethoxy)-]
NOAEL (subchronic, duration: 42 days, gavage, M, CD(SD), Clinical Observation: Decrease in locomotor activity Salivation (transient) + Food Consumption: decrease + Urinalysis: K decrease, Cl …): 62.5 mg/kg-day

Nc1ccc2cc(S(=O)(=O)CCO)ccc2c1 [Ethanol, 2-[(6-amino-2-naphthalenyl)sulfonyl]-]
NOEL (short-term, duration: 28 days, gavage, M/F, Body Weight Changes: Weight gain decrease + Urinalysis: pH decrease(slight) + Hematology: RBC decrease, RET increase, PT increase + Absolute…): 15 mg/kg-day

Nc1nc(N)nc(-c2cc(Cl)ccc2Cl)n1.O=C(O)/C=C\C(=O)O [Irsogladine maleate]
NOEL (chronic, duration: 91 days, gavage, M/F, Sprague-Dawley, Deaths + Clinical Observation: Piloerection Salivation Locomotor activity decrease, Decrease in reactivity Soiled fur Brownish urine Soiled …): 3 mg/kg-day

O=C(O)CCCC/C=C(\c1ccccc1)c1cccnc1 [Isbogrel]
NOAEL (subchronic, gavage, M/F, CD, Clinical Observation: Salivation + Hematology: RBC decrease, HCT decrease, HGB decrease + Blood Chemistry: Bil increase, GLUC decrease, TP …): < 100 mg/kg-day

CC(C)CCO [Isopentyl alcohol]
NOAEL [2]: 1000 mg/kg-day
NOEL [2]: 1000 mg/kg-day
NOAEL [3]: 500 mg/kg-day
NOEL [3]: 500 mg/kg-day

CC1(C)CC(N)CC(C)(CN)C1 (stereo not drawn) [Isophorone diamine]
NOAEL (subchronic, duration: 90 days, drinking water, M/F, Wistar, Body Weight Changes: Weight gain decrease + Food Consumption: decrease + Water Consumption: decrease + Absolute Organ Weight: Kidney …): 60 mg/kg-day

CC(=O)N1CCN(c2ccc(OC[C@@H]3CO[C@@](Cn4ccnc4)(c4ccc(Cl)cc4Cl)O3)cc2)CC1 [Ketoconazole]
NOEL (short-term, duration: 28 days, gavage, M/F, Sprague-Dawley, Body Weight Changes: decrease + Blood Chemistry: ALT increase, Estrus cycle increase, T3 decrease, T4 decrease, TSH increase, Testosterone …): < 6.25 mg/kg-day

CC1(C)Oc2ccc(C#N)cc2[C@@H](N2CCCC2=O)[C@@H]1O [Levcromakalim]
NOAEL (chronic, duration: 91 days, diet, M/F, CD, Body Weight Changes: increase.3 + Food Consumption: increase.3 + Water Consumption: increase + Urinalysis: Volume increase Osmolality …): 0.03 mg/kg-day

CCCCCC1C(=O)CCC1CC(=O)OC (stereo not drawn) [Methyl dihydrojasmonate]
NOAEL [4]: 100 mg/kg-day
NOEL [4]: 100 mg/kg-day

CC1CCCCC1 [Methylcyclohexane]
LOEL [5]: 250 mg/kg-day
NOEL [5]: 62.5 mg/kg-day

CC(C)CCCCCOC(=O)C[S][Sn]([CH3])([S]CC(=O)OCCCCCC(C)C)[S]CC(=O)OCCCCCC(C)C [Methyltin tris(isooctyl mercaptoacetate)]
NOAEL (subchronic, duration: 90 days, diet, M, Wistar, Blood Chemistry: BUN increase + Relative Organ Weight: Thymus increase, Kidney increase + Histopathology: Kidney: Dilatation, tubule, cystic…): 48 mg/kg-day
